In patent US20260215432A1, “ANTIMICROBIAL CONJUGATED OLIGOELECTROLYTES AND METHODS THEREOF” (National University of Singapore, priority 2023, published 2026):

Key:
[1] = system: E. coli. K12 (ATCC 10798); test: MIC, broth microdilution in CA-MHB; type: cell-based; conditions: ATCC 10798, Table 7
Experimental: Antimicrobial activity was screened against a range of pathogens made up of clinically relevant ESKAPE pathogens by determination of the minimum inhibitory concentration (MIC) in cation-adjusted Mueller-Hinton broth (CA-MHB).
(§1) Minimum inhibitory concentrations of COEs were determined through a broth microdilution method in accordance with the Clinical and Laboratory Standards Institute (CLSI) guidelines M07-A10. A single bacterial colony was isolated from an overnight culture and grown to mid-log phase (OD600~0.8). Compounds were prepared as a stock solution in DMSO and diluted in a sterile flat-bottom 96-well plate in CA-MHB. Subsequent concentrations were prepared by two-fold dilution of the initial solution. An equivalent volume of bacteria was added to the compound to a final concentration of 5×10^5 cfu/mL. Plates were incubated at 37° C. for 16-18 hours, and read at OD600 using a microplate reader (TECAN Spark®). […] MIC values were determined for each compound in triplicate.

[2] = system: methicillin-resistant S. aureus (USA300); test: MIC of compounds 1-5; type: cell-based; conditions: USA300, Table 7
Experimental: as §1, with “triplicate. For each test, Polymyxin B (Gram-negative) or vancomycin (Gram-positive) was used as a positive control.” for “triplicate.”

Q: For `[I-].[I-].c1ccc([P+](CCCCCCCCOc2ccc(/N=N/c3ccc(OCCCCCCCC[P+](c4ccccc4)(c4ccccc4)c4ccccc4)cc3)cc2)(c2ccccc2)c2ccccc2)cc1` [Compound 3], which MIC E. coli K12 [1] is on record?
A: 32 µg/mL

Q: And the MIC MRSA [2]?
A: 4 µg/mL

Q: Which results are given for `C(=C\c1cc(OCCC[P+](c2ccccc2)(c2ccccc2)c2ccccc2)cc(OCCC[P+](c2ccccc2)(c2ccccc2)c2ccccc2)c1)/c1ccc(/C=C/c2cc(OCCC[P+](c3ccccc3)(c3ccccc3)c3ccccc3)cc(OCCC[P+](c3ccccc3)(c3ccccc3)c3ccccc3)c2)cc1.[I-].[I-].[I-].[I-]` [Compound 5]?
A: MIC E. coli K12 [1]: 64 µg/mL; MIC MRSA [2]: 32 µg/mL
